Measured values taken from PubChem BioAssay AID179 (DTP/NCI, 2004).
pEC50, pIC50: −log10 of the molar value. The source made the active and inactive calls.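 Rule for the calls: active = compounds giving half or more protection of infected cells from virus-caused growth loss, again on retest; inactive = the rest.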 Where a SMILES comes first, the peptide text is derived from it.

Test system: CEM cells HIV-1 protection, formazan growth assay
Assay: NCI AIDS Antiviral Assay
Settings: for pIC50: measured here: growth of uninfected CEM cells
Summary of the method: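 Protection of CEM cells against HIV-1 was scored from cell growth (soluble formazan) across five concentrations, with parallel uninfected cells. Lack of protection may reflect toxicity.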

SMILES | pEC50 | pIC50 | outcome
CCOC(=O)c1ccc(NC(=O)O/N=C(/Cl)C(C)C)cc1 | < 3.70 | 4.98 | 
O=c1cc(NNc2cccc(F)c2)[nH]c(=S)[nH]1 | < 3.70 | 4.06 | 
O=C(CCc1ccccc1)On1c(-c2ccccc2)nc2ccccc2c1=S | < 3.70 | 5.46 | 
Cc1ccccc1C1(Br)C(=O)c2ccccc2C1=O | < 3.70 | 4.47 | 
COCc1cn(C2CCC(CO)O2)c(=O)[nH]c1=O (configuration not stated) | < 3.31 | 3.57 | 
CC(=O)O[C@]1(C(C)=O)CC[C@H]2[C@@H]3C[C@H](C)C4=CC(=O)C=C[C@]4(C)[C@@]3(F)[C@@H](O)C[C@@]21C |  |  | inactive
O=Nc1ccc(O)cc1 | < 4.70 | 5.41 | 
CCCCCCCCCCCCCCCCNc1nc(=O)n(C2CC(N=[N+]=[N-])C(CO)O2)cc1C (configuration not stated) | < 3.70 | 5.03 | 
O=C1c2cccc3cccc(c23)C(=O)N1c1nccs1 | < 4.30 | < 4.30 | 
O=C(O)c1n[nH][nH]c1=S | 3.90 | < 3.70 | 
O=C1CSC(c2c[nH]c3ccccc23)N1c1ccc(Cl)cc1Cl (configuration not stated) | < 3.59 | 4.25 | 
Cc1nn(C)c(N)c1N=O | < 3.70 | < 3.70 | 
CC(C)CC(=O)NC(NC(C)C)(C(F)(F)F)C(F)(F)F | < 3.70 | < 3.70 | 
COc1ccc(NC(=S)Nc2cccc(C)n2)cc1 | < 3.70 | < 3.70 | 
Cc1c(COC(=O)NC(C)C)c(COC(=O)NC(C)C)c2n1CS(=O)(=O)C2 | < 3.70 | < 3.70 | 
CCOc1ccc(N=Nc2c(-c3ccccc3)nn(C(=O)CC(=O)Nc3ccccc3Cl)c2-c2ccccc2)cc1 | < 4.48 | < 4.48 | 
CC(=O)NC(CCCNCc1ccccc1)C(=O)NCc1ccccc1 (configuration not stated) | < 3.15 | < 3.15 | 
CC(=O)NC1C(O)CC(O)(C(=O)O)OC1C(O)C(O)CO (configuration not stated) |  |  | inactive
COc1ccc(CSCc2cc(OC)c(OC)c(OC)c2)cc1 | < 3.70 | 4.59 | 
O=[N+]([O-])c1ccc2c(c1)c(OCc1ccccc1)nn2Cc1ccccc1 | < 3.70 | 4.02 | 
CCN(CC)c1ccc(C(=O)c2ccccc2C(=O)O)c(O)c1 |  |  | inactive

SMILES | pEC50 | pIC50 | outcome
O=Nc1ccc(O)c(Cl)c1 | < 3.70 | 4.88 | 
COc1ccc(CCNC(=S)/N=C\C(C(=O)c2ccccc2)=C(\O)c2ccccc2)cc1OC |  |  | inactive
Cc1cccc(C)c1N1C(=O)C(=O)C(c2nc3ccccc3s2)/C(=N\N)C1=O (configuration not stated) |  |  | inactive
CC1(C)N=C(C(N)=O)c2ncn(-c3ccccc3)c2N1 | < 3.70 | < 3.70 | 
O=C1c2ccccc2-c2nccc3c2c1nc1ccccc13 | < 3.70 | 5.08 | 
CC(C)(C)C(=O)ON1N=NC2C3CC(OCc4ccccc4)(OCc4ccccc4)C(O3)C21 (configuration not stated) | < 4.80 | < 4.80 | 
CCOc1ccc(N2C(=O)C3c4[nH]c5ccccc5c4C4CCC(C(C)(C)C)CC4C3C2=O)cc1 (configuration not stated) | < 5.66 | < 5.66 | 
C/C(=N\Nc1ccc([N+](=O)[O-])cc1[N+](=O)[O-])c1sc(-n2nc(-c3ccccc3)cc2-c2ccccc2)nc1C | < 3.90 | 4.37 | 
C=CCn1c(=S)[nH]c2c(Cl)cc(Cl)cc2c1=O | < 3.70 | 3.97 | 
CSCCC(N)C(=O)NCCNc1ccc(NCCNC(=O)C(N)CCSC)c2c1C(=O)c1ccccc1C2=O (configuration not stated) | < 3.82 | 6.66 | 
COC1=CC(=O)C(CO)=CC1=O | < 3.70 | 5.12 | 
c1ccc(-c2nc(-c3ccccc3SSc3ccccc3-c3nc(-c4ccccc4)nn3-c3ccccc3)n(-c3ccccc3)n2)cc1 | < 4.00 | < 4.00 | 
COc1cc(CS(=O)c2ccc(O)cc2)cc(OC)c1OC (configuration not stated) | < 3.70 | < 3.70 | 
CC(C)CCCC(C)C1CCC2[C@@H]3CCC4C[C@@H](CCCO)CC[C@]4(C)C3CC[C@]12C (some centres not stated) | < 5.36 | < 5.36 | 
COc1cc(C)cc2c1c(=O)c1ccccc1n2C | < 3.70 | 4.41 | 
O=C(OCc1ccccc1)C(Cc1ccccc1)N(Cc1ccccc1)Cc1ccccc1 (configuration not stated) | < 3.70 | < 3.70 | 
O=[N+]([O-])c1ccc(-c2csc(=[N+]3CCCCC3)s2)cc1 |  |  | inactive
O=C(CC(C(=O)c1cccs1)c1ccc2c(c1)OCO2)c1ccccc1 (configuration not stated) | < 3.70 | < 3.70 | 
COc1ccc(C2CC(=O)c3c(OC(C)=O)cc(OC(C)=O)cc3O2)cc1OC(C)=O (configuration not stated) | < 3.70 | 5.11 | 
Nc1ccn(C2CC(CO)C(CO)C2)c(=O)n1 (configuration not stated) | < 3.68 | < 3.68 | 
CC(=O)c1ccc(NC(=O)/C(CC(=O)c2sc(-c3cccnc3)nc2C)=N/NC(N)=O)cc1 | < 4.67 | < 4.67 | 

SMILES | pEC50 | pIC50 | outcome
O=S1c2ccccc2N=C(c2ccc3ccccc3c2)CC1c1ccccc1F (configuration not stated) | < 4.74 | < 4.74 | 
COC(=O)[C@H](Cc1ccc(O)cc1)NC(=O)[C@H](Cc1ccc(O)cc1)NC(=O)OC(C)(C)C (HELM PEPTIDE1{[CC(C)(C)OC(=O)[*:2]].Y.Y.[CO[*:1]]}$$$$V2.0) | < 3.70 | 4.03 | 
CCCCc1ccc(N2C(=O)c3cc([N+](=O)[O-])cnc3S2(=O)=O)cc1 | < 5.70 | 6.32 | 
Cn1c2c(c(=O)n(C)c1=O)CN(Cc1ccccc1)CN2 | < 3.70 | < 3.70 | 
Cc1ccc2cc(-c3ccccc3)c3ccc(C)nc3c2n1.Cc1ccc2cc(-c3ccccc3)c3ccc(C)nc3c2n1.O=C1OC(C(O)C[O-])C(O)=C1O.[Cu+] | < 4.60 | 5.89 | 
COc1ccc(-c2cc(=O)c3c(O)c(OC)c(OC)c(OC)c3o2)cc1 | < 3.70 | 4.26 | 
S=C(NCCSSCCNC(=S)Nc1ccccc1)Nc1ccccc1 | < 3.70 | 4.45 | 
CC(C)(C)OC(=O)NC(Cc1ccc([N+](=O)[O-])cc1)C(=O)NC(CCCCNC(=O)OCc1ccccc1)C(=O)ON1C(=O)CCC1=O (configuration not stated) | < 3.70 | 4.25 | 
O=C(Cc1csc(N=Nc2c(O)[nH]c3ccccc23)n1)Nc1ccccc1 | < 3.70 | 3.95 | 
N#C/C(=C/c1ccsc1)C(=O)c1ccccc1 | < 3.96 | < 3.96 | 
C[C@]12CCC3=NCCCN3C1=CC[C@@H]1[C@@H]2CC[C@@]2(C)[C@H]1CC[C@]2(C)O | < 4.32 | < 4.32 | 
CCOC(=O)/C(=C(\C)N)C1CC(=O)NC1=O (configuration not stated) | < 3.70 | 3.97 | 
CC(C)CCC[C@@H](C)C1CCC2[C@@H]3CCC4C[C@@H](CCC=C(c5cc(Cl)c(O)c(C(=O)O)c5)c5cc(Cl)c(O)c(C(=O)O)c5)CC[C@]4(C)C3CC[C@@]21C (some centres not stated) | 4.49 | < 4.00 | 
COc1ccc(/C=C2\NC(=S)N(CN3CCOCC3)C2=O)cc1 | < 3.70 | 4.33 | 
O=C1C(Cl)=C(Cl)C(=O)N1c1ccc(Cl)c(Cl)c1Cl |  |  | inactive
COc1ccc2c(c1)CCCN1CCc3cc(OC)c(OC)cc3C21 (configuration not stated) | < 3.70 | < 3.70 | 
C=CCCCCCCCCCCCC1CCC(CC)N1 (configuration not stated) | < 3.62 | < 3.62 | 
COc1ccc(/C=C2/SC(=Nc3ccccc3)N(NC(=O)Cc3ccccc3)C2=O)cc1 | < 3.67 | 3.83 | 
CC(C)OP(=O)(OC(C)C)C(C)(C)O | < 3.70 | < 3.70 | 
O=C(OCc1ccccc1)N1CCNCCNCCN(C(=O)OCc2ccccc2)CCNCC1 | < 3.70 | 3.95 | 
